“Also recorded” adds a separate entry of the source. Where two headings read alike, the source gives them in different places. Blank lines part the entries; values can stand above or below the molecule they belong to.
What was measured:
[1] = system: P. falciparum (NF54-Mal8p1.16-GFP-Luc) late-stage gametocytes; assay: microbe, parasite or virus in culture; format: cell-based, Plasmodium falciparum; settings: Plasmodium falciparum; for inhibition at 5 µM: NF54, read-out: Inhibition of late-stage gametocytes
Description: Gametocytes were produced as per [Reader et al. (2015]; [2021)] from P. falciparum NF54-Mal8p1.16-GFP-Luc ([Adjalley et al., 2011]), and each batch was validated for viability and functionality before use. […] Drug assays were set up on day 10 (representing late gametocytes, >90% stage IV/V gametocytes) using a 2–3% gametocytemia, 1.5% hematocrit culture. The drug pressure was for 48 h under stationary, hypoxic conditions (90% N2, 5% O2, and 5% CO2) at 37°C. Luciferase activity was determined in 30 μL parasite lysates by adding 30 μL luciferin substrate (Promega Luciferase Assay System) at room temperature and detection of resultant bioluminescence at an integration constant of 10 s with the GloMax®-Multi + Detection System with Instinct® Software. Methylene blue (5 μM) and an internal control (MMV390048, 5 μM) were routinely included as controls.

P. falciparum 3D7 = assay: In vitro antiplasmodial activity, P. falciparum 3D7 (SYBR Green I); format: cell-based; settings: Plasmodium falciparum, read-out: Activity against P. falciparum 3D7, IC50
Description: (§1) P. falciparum (3D7 clone) and P. knowlesi (A1-H.1 clone) were maintained in culture in RPMI 1640 supplemented with 25 mM HEPES, 25 mM NaHCO3, 10 mM D-glucose, 2 mM L-glutamine, 50 mg/L hypoxanthine, 25 mg/L gentamicin sulfate, 5 g/L Albumax II, and 10% (v/v) equine serum (Thermo Fisher Scientific, 26-050-088). The P. falciparum (3D7) and P. knowlesi (A1-H.1) parasites were grown in human A^+ red blood cells (National Health Blood and Transplant, United Kingdom). The parasites were incubated in sealed flasks at 37°C under a culture gas mixture of 96% N2, 3% CO2, and 1% O2. ([van Schalkwyk et al., 2019]). The compounds were initially dissolved in DMSO prior to diluting in RPMI. All experiments were initiated using unsynchronized parasites with both the parasitemia and hematocrit set to 1%. Drug susceptibility assays were set up in 96-well, flat-bottom microplates in a final volume of 200 μL, as described previously ([van Schalkwyk et al., 2017]). The controls were included for the background fluorescence (0% viability; parasites exposed to a supralethal 10 μM chloroquine concentration) and 100% growth (parasites in drug-free wells). The plates were incubated for one complete life cycle (27 h for P. knowlesi or 48 h for P. falciparum in vitro) at 37°C in a modular incubation chamber (Billups-Rothenburg Inc.) under the culture gas. Upon termination of the assay, the plates were stored at −20°C overnight. The SYBR Green I fluorescent method was used to measure parasite survival ([Bennett et al., 2004]; [Smilkstein et al., 2004]). After the microplates were thawed, 100 μL from each well was transferred into a duplicate plate. To this was added 100 μL of SYBR green solution [SYBR Green I (Thermo Fisher Scientific, S7563), diluted 1:5000 in a lysis buffer made of 20 mM Tris, 5 mM EDTA, 0.008% (w/v) saponin, 0.08% (v/v) Triton X-100, pH 7.5]. The plates were stored in the dark for 1 h before fluorescence was read at a 490 nm excitation wavelength and a 520 nm emission wavelength on a Spectramax M3 microplate reader (Molecular Devices) ([van Schalkwyk et al., 2017]). The background fluorescence (wells with parasites at 0% viability) was subtracted from all drug assay wells, and the parasite proliferation was determined as a percentage of the fluorescence in the drug-free control wells.

P. knowlesi A1-H.1 = assay: In vitro antiplasmodial activity, P. knowlesi A1-H.1 (SYBR Green I); format: cell-based, Plasmodium knowlesi; settings: Plasmodium knowlesi, 27 h, read-out: Activity against P. knowlesi A1-H.1, IC50, 27 h, ± SD
Description: as §1

P. falciparum K1 [2] = assay: In vitro antiplasmodial activity, P. falciparum K1 (lactate dehydrogenase assay); format: cell-based, Plasmodium falciparum; settings: Plasmodium falciparum, read-out: Activity against P. falciparum K1, IC50
Description: P. falciparum (K1 clone) was maintained in human erythrocytes prepared from the donated blood samples (blood groups unknown, Ethical Tissue, University of Bradford), suspended in the RPMI 1640 medium as previously described ([Wright et al., 2001]), except that serum was replaced with Albumax II, [5% (^w/v)]. […] Twofold serial dilutions were made in 96-well microtiter plates in duplicate, and infected erythrocytes were added to give a final volume of 100 µL with 2.5% hematocrit and 1% parasitemia. Chloroquine diphosphate was used as a positive control, and uninfected and infected erythrocytes without compounds were included in each test. The plates were placed into a modular incubator; gassed with 93% nitrogen, 3% oxygen, and 4% carbon dioxide; and incubated at 37°C for 48 h. The parasite growth was assessed by measuring lactate dehydrogenase activity as described by [Makler et al. (1993)]. The reagent used contained the following in each mL: acetylpyridine adenine dinucleotide (APAD), 0.74 mg; lithium lactate, 19.2 mg; diaphorase, 0.1 mg; Triton X-100, 2 μL; nitroblue tetrazolium, 1 mg; and phenazine ethosulphate, 0.5 mg. Fifty microliter of this reagent was added to each well and mixed; plates were incubated for 15 min at 37°C. The optical densities were read at 550 nm using an Azure 96-well microplate reader (Azure Biosystems Inc.), and % inhibition of growth was calculated by comparison with the control values. IC50 values were determined using linear regression analysis (Microsoft Excel). A minimum of three separate determinations was carried out for each compound.

P. falciparum K1 [3] = system: P. falciparum K1; parameters: method as in Onyeibor et al., 2005; settings: strain K1; ref Onyeibor et al., 2005; read-out: Activity against P. falciparum K1, IC50; cited from earlier work
P. berghei = settings: I.P., 25 mg/kg; ref Onyeibor et al., 2005; cited from earlier work
[4] = Acute oral toxicity in mice; format: in vivo; settings: oral, 20, 50 and 100 mg/kg/dose × 3 consecutive days; up to 100 mg/kg/dose; 2 as hydrochloride, 4–6 as citrate
Description: Female NIH Swiss mice aged 6–12 weeks were used (Envigo, Blackthorn, United Kingdom). The mice were kept in cages housed in isolation cabinets in an air-conditioned room with regular alternating cycles of light and darkness. They received Teklad 2018 diet (Envigo, Blackthorn, United Kingdom) and water ad libitum. All animal procedures were carried out under a project license issued by the UK Home Office, and UK National Cancer Research Institute Guidelines for the Welfare of Animals were followed throughout. […] A group of two untreated control animals was included at each dose level. Following treatment, the body weight was measured on a regular basis, and behavior and general appearance were monitored visually to assess for deleterious effects (e.g., dehydration, impaired mobility, hunched posture, a low body temperature, ulceration, and significant bodyweight loss), with any effects during the study recorded. […] If no deleterious effects were seen after at least 18 days of study, then the animals were sacrificed, and the dose was considered non-toxic.

Hep G2-A16-CD81 cells = assay: Hep G2 cellular toxicity counter-screen (CellTiterGlo); format: cell-based; settings: HepG2-A16-CD81, no sporozoites, ± SE, read-out: Activity against Hep G cells
Description: (§2) Briefly, 3000 Hep G2-A16-CD81 cells/well were seeded in 1536-well plates (Greiner Bio). 50 nL of the test and control compound diluted in DMSO was added and incubated for 24 h. […] The plates were centrifuged for 5 min at 330 × g and incubated at 37°C. Forty-eight hours post infection, 2 μL of luciferin reagent (Promega BrightGlo) was added to each well, and the luciferase activity was detected using a Perkin Elmer Envision plate reader. […] To counter-screen for cellular toxicity, Hep G2-A16-CD81 cells were seeded as above for the sporozoite liver-stage assay but in the absence of sporozoites. Toxicity measurements were performed by adding Promega CellTiterGlo® (2 μL), followed by luminescence measurements. Curve fitting was done as described above using puromycin (25 μM) as a positive control and DMSO as negative control wells.

A2780/WT cells = assay: Chemosensitivity MTT assay, A2780 wild type; format: cell-based, human; settings: ± SE, read-out: Activity against A2780/WT cells, IC50
Description: (§3) The chemosensitivity of compounds 3–6 was assessed in the wild-type immortalized human ovarian adenocarcinoma cell line A2780 and its daughter cell lines, which are resistant to the standard cancer chemotherapeutics doxorubicin (A2780/ADR) and cisplatin (A2780/CIS, all cell lines from ECACC, Salisbury, United Kingdom). A modified MTT assay was used ([Shnyder et al., 2008]). Cells (2 × 10^4/ml) were inoculated into each well of a 96-well plate and incubated for 24 h at 37°C in a humidified atmosphere containing 5% CO2. Compounds were then added at a range of concentrations to each well, and the plates were then incubated for a further 96 h. After 96 h, the culture medium was removed and 200 μL of 0.5 mg ml^–1 MTT solution (Sigma) in the complete medium was added to each well. Following a further 4 h incubation, the solution was removed from each well and 150 μL of DMSO was added to solubilize the formazan crystals resulting from MTT conversion. The absorbance values for the resulting solutions were read at 540 nm on an Azure 96-well microplate reader (Azure Biosynstems Inc.), and the cell survival was calculated as the absorbance of treated cells divided by the control.

A2780/cis cells = assay: Chemosensitivity MTT assay, cisplatin-resistant A2780/CIS; format: cell-based, human; settings: 96 h, ± SE, read-out: Activity against A2780/cis cells, IC50
Description: as §3

A2780/ADR cells = assay: Chemosensitivity MTT assay, doxorubicin-resistant A2780/ADR; format: cell-based; settings: Homo sapiens, 96 h, ± SE, read-out: Activity against A2780/ADR cells, IC50
Description: as §3, with “A” for “The chemosensitivity of compounds 3–6 was assessed in the wild-type immortalized human ovarian adenocarcinoma cell line A2780 and its daughter cell lines, which are resistant to the standard cancer chemotherapeutics doxorubicin (A2780/ADR) and cisplatin (A2780/CIS, all cell lines from ECACC, Salisbury, United Kingdom). A”

[5] = system: T. brucei bloodstream forms (strain 427, derivative 221); assay: In vitro activity against T. brucei bloodstream forms (resazurin); format: cell-based, Trypanosoma brucei; settings: Trypanosoma brucei, bloodstream forms, hydrochloride salts except 6 (citrate), ± SE
Description: Bloodstream form T. brucei (strain 427, derivative 221) was maintained in modified Iscove’s medium, as described previously ([Taylor et al., 2013]). […] The parasites were diluted to 1 × 10^4 ml^−1, the compound was added at a range of concentrations, and the plates were incubated at 37°C in 5% CO2 for 48 h. Resazurin was then added to each well, and the plates were incubated for a further 16 h. Fluorescence intensities were determined using a BMG FLUOstar Omega plate reader (excitation 545 nm, emission 590 nm), and data were analyzed using Graph Pad Prism 9.0 software. […]

P. berghei sporozoites = assay: P. berghei liver-stage assay (sporozoites in Hep G2-A16-CD81 cells, luciferase); format: cell-based, Plasmodium berghei; settings: Plasmodium berghei, HepG2-A16-CD81, 48 h, read-out: Activity against the P. berghei liver stage, IC50
Description: as §2

Structure (SMILES): CN(C)c1ccc2nc3ccc(=[N+](C)C)cc-3sc2c1 [Methylene blue, reference compound]
inhibition at 5 µM [1]: 96%

Structure (SMILES): CCN(CC)CCCC(C)Nc1ccnc2cc(Cl)ccc12 (stereo not drawn) [Chloroquine diphosphate, reference compound]
IC50 (P. falciparum 3D7; 3D7, 48 h): 12 ± 3 nM | IC50 (P. knowlesi A1-H.1): 20 ± 3 nM | IC50 (P. falciparum K1 [2]; K1, 48 h): 350 ± 140 nM

Structure (SMILES): Cn1c2c3cc(Br)ccc3nc-2cc2cc(Br)ccc21 [Compound 2, 2,7-dibromocryptolepine]
IC50 (P. falciparum K1 [3]): 49 ± 20 nM | IC50 (P. falciparum 3D7; chloroquine-sensitive strain 3D7, 48 h): 30 ± 6 nM | Suppression of parasitemia in mice (P. berghei): 90% | Toxicity to mice in the antimalarial test (P. berghei): without apparent toxicity | IC50 ([1]; NF54, 48 h, read-out: Activity against late-stage gametocytes IC50): 2000 ± 170 nM | IC50 (P. knowlesi A1-H.1): 30 ± 4.5 nM | Acute oral toxicity in mice [4]: No toxicity was seen; also recorded: not toxic | IC50 (Hep G2-A16-CD81 cells): 4940 ± 1810 nM

Structure (SMILES): N.N.[Cl][Pt][Cl] [Cisplatin, reference compound]
IC50 (A2780/WT cells; 96 h): 3470 ± 2200 nM | IC50 (A2780/cis cells): 24700 ± 2750 nM

IC50 (A2780/WT cells; Homo sapiens, A2780, 96 h): 70 ± 60 nM | IC50 (A2780/ADR cells): 3030 ± 350 nM
Structure (SMILES): COc1cccc2c1C(=O)c1c(O)c3c(c(O)c1C2=O)C[C@@](O)(C(=O)CO)C[C@@H]3O[C@H]1C[C@H](N)[C@H](O)[C@H](C)O1 [Doxorubicin, reference compound]

Structure (SMILES): CS(=O)(=O)c1ccc(-c2cnc(N)c(-c3ccc(C(F)(F)F)nc3)c2)cc1 [MMV 390048, reference compound]
inhibition at 5 µM [1]: 96.2%

IC50 ([5]; 64 h, 48 h + 16 h resazurin): 199 ± 15 nM | IC90 [5]: 256 ± 6 nM | IC50 (A2780/WT cells; Homo sapiens, A2780, 96 h): 70 ± 10 nM | IC50 (A2780/ADR cells): 170 ± 40 nM | IC50 (A2780/cis cells; Homo sapiens, A2780cis): 230 ± 20 nM | IC50 (P. falciparum K1 [2]; chloroquine-resistant strain K1, 48 h, mean ± SE): 150 ± 30 nM
Structure (SMILES): C[n+]1c2ccccc2cc2[n-]c3ccc(Br)cc3c21 [Compound 3, 7-Bromocryptolepine]

Structure (SMILES): O=C1C(O)=C([C@H]2CC[C@H](c3ccc(Cl)cc3)CC2)C(=O)c2ccccc21 [Atovaquone, reference compound]
IC50 (P. berghei sporozoites): 0.383 nM

Reference: publication PMC9119314 (Frontiers in Pharmacology, 2022)
